Results as given in ChEMBL document CHEMBL5303573, “Mapping human microbiome drug metabolism by gut bacteria and their genes” (Nature, 2019).

Assay: The drug is tested on Bacteroides xylanisolvens strain: DSM18836 for biotransformation. The drug concentrations were measured before and after a 12-h incubation by liquid-chromatography-coupled mass spectrometry (LC–MS)
Conditions: 2 µM

Structure (SMILES) | Bacterial Biotransformation
C#C[C@]1(O)CC[C@H]2[C@@H]3CCC4=CC(=O)CC[C@@H]4[C@H]3CC[C@@]21CC [LEVONORGESTREL] | Compound metabolized
CNCC[C@H](Oc1cccc2ccccc12)c1cccs1 [DULOXETINE] | Compound metabolized
O=c1[nH]c2ccccc2n1CCCN1CCC(n2c(=O)[nH]c3cc(Cl)ccc32)CC1 [DOMPERIDONE] | Compound NOT metabolized

Assay: The drug is tested on Bacteroides sp. WH2 strain: WH2 for biotransformation. The drug concentrations were measured before and after a 12-h incubation by liquid-chromatography-coupled mass spectrometry (LC–MS)
Conditions: bacteroides sp. wh2, 12 h, 2 µM

Structure (SMILES) | Bacterial Biotransformation
C#C[C@]1(O)CC[C@H]2[C@@H]3CCC4=CC(=O)CC[C@@H]4[C@H]3CC[C@@]21CC [LEVONORGESTREL] | Compound metabolized
O=c1[nH]c2ccccc2n1CCCN1CCC(n2c(=O)[nH]c3cc(Cl)ccc32)CC1 [DOMPERIDONE] | Compound NOT metabolized

Assay: The drug is tested on Providencia stuartii strain: ATCC25827 for biotransformation. The drug concentrations were measured before and after a 12-h incubation by liquid-chromatography-coupled mass spectrometry (LC–MS)
Conditions: 2 µM

Structure (SMILES) | Bacterial Biotransformation
C#C[C@]1(O)CC[C@H]2[C@@H]3CCC4=CC(=O)CC[C@@H]4[C@H]3CC[C@@]21CC [LEVONORGESTREL] | Compound NOT metabolized

Assay: The drug is tested on Collinsella aerofaciens strain: ATCC25986 for biotransformation. The drug concentrations were measured before and after a 12-h incubation by liquid-chromatography-coupled mass spectrometry (LC–MS)
Conditions: 2 µM

Structure (SMILES) | Bacterial Biotransformation
C#C[C@]1(O)CC[C@H]2[C@@H]3CCC4=CC(=O)CC[C@@H]4[C@H]3CC[C@@]21CC [LEVONORGESTREL] | Compound NOT metabolized
CNCC[C@H](Oc1cccc2ccccc12)c1cccs1 [DULOXETINE] | Compound metabolized
O=c1[nH]c2ccccc2n1CCCN1CCC(n2c(=O)[nH]c3cc(Cl)ccc32)CC1 [DOMPERIDONE] | Compound NOT metabolized

Assay: The drug is tested on Ruminococcus gnavus strain: ATCC29149 for biotransformation. The drug concentrations were measured before and after a 12-h incubation by liquid-chromatography-coupled mass spectrometry (LC–MS)
Conditions: mediterraneibacter gnavus, 2 µM

Structure (SMILES) | Bacterial Biotransformation
C#C[C@]1(O)CC[C@H]2[C@@H]3CCC4=CC(=O)CC[C@@H]4[C@H]3CC[C@@]21CC [LEVONORGESTREL] | Compound metabolized
CNCC[C@H](Oc1cccc2ccccc12)c1cccs1 [DULOXETINE] | Compound NOT metabolized
O=c1[nH]c2ccccc2n1CCCN1CCC(n2c(=O)[nH]c3cc(Cl)ccc32)CC1 [DOMPERIDONE] | Compound NOT metabolized

Assay: The drug is tested on Bifidobacterium ruminantium strain: fecal isolate for biotransformation. The drug concentrations were measured before and after a 12-h incubation by liquid-chromatography-coupled mass spectrometry (LC–MS)
Conditions: 2 µM

Structure (SMILES) | Bacterial Biotransformation
C#C[C@]1(O)CC[C@H]2[C@@H]3CCC4=CC(=O)CC[C@@H]4[C@H]3CC[C@@]21CC [LEVONORGESTREL] | Compound NOT metabolized
CNCC[C@H](Oc1cccc2ccccc12)c1cccs1 [DULOXETINE] | Compound metabolized
O=c1[nH]c2ccccc2n1CCCN1CCC(n2c(=O)[nH]c3cc(Cl)ccc32)CC1 [DOMPERIDONE] | Compound NOT metabolized

Assay: The drug is tested on Clostridium ramosum strain: DSM1402 for biotransformation. The drug concentrations were measured before and after a 12-h incubation by liquid-chromatography-coupled mass spectrometry (LC–MS)
Conditions: thomasclavelia ramosa, 2 µM

Structure (SMILES) | Bacterial Biotransformation
C#C[C@]1(O)CC[C@H]2[C@@H]3CCC4=CC(=O)CC[C@@H]4[C@H]3CC[C@@]21CC [LEVONORGESTREL] | Compound NOT metabolized
CNCC[C@H](Oc1cccc2ccccc12)c1cccs1 [DULOXETINE] | Compound NOT metabolized
O=c1[nH]c2ccccc2n1CCCN1CCC(n2c(=O)[nH]c3cc(Cl)ccc32)CC1 [DOMPERIDONE] | Compound NOT metabolized

Conditions: bacteroides thetaiotaomicron, 12 h, 2 µM
Description: The drug is tested on Bacteroides thetaiotaomicron strain: 3731 for biotransformation. The drug concentrations were measured before and after a 12-h incubation by liquid-chromatography-coupled mass spectrometry (LC–MS)

Structure (SMILES) | Bacterial Biotransformation
C#C[C@]1(O)CC[C@H]2[C@@H]3CCC4=CC(=O)CC[C@@H]4[C@H]3CC[C@@]21CC [LEVONORGESTREL] | Compound metabolized
CNCC[C@H](Oc1cccc2ccccc12)c1cccs1 [DULOXETINE] | Compound NOT metabolized
O=c1[nH]c2ccccc2n1CCCN1CCC(n2c(=O)[nH]c3cc(Cl)ccc32)CC1 [DOMPERIDONE] | Compound NOT metabolized

Assay: The drug is tested on Bacteroides fragilis strain: HMW615 for biotransformation. The drug concentrations were measured before and after a 12-h incubation by liquid-chromatography-coupled mass spectrometry (LC–MS)
Conditions: 2 µM

Structure (SMILES) | Bacterial Biotransformation
C#C[C@]1(O)CC[C@H]2[C@@H]3CCC4=CC(=O)CC[C@@H]4[C@H]3CC[C@@]21CC [LEVONORGESTREL] | Compound metabolized
CNCC[C@H](Oc1cccc2ccccc12)c1cccs1 [DULOXETINE] | Compound NOT metabolized
O=c1[nH]c2ccccc2n1CCCN1CCC(n2c(=O)[nH]c3cc(Cl)ccc32)CC1 [DOMPERIDONE] | Compound NOT metabolized

Conditions: roseburia intestinalis, 12 h, 2 µM
Description: The drug is tested on Roseburia intestinalis strain: L1-82 for biotransformation. The drug concentrations were measured before and after a 12-h incubation by liquid-chromatography-coupled mass spectrometry (LC–MS)

Structure (SMILES) | Bacterial Biotransformation
CNCC[C@H](Oc1cccc2ccccc12)c1cccs1 [DULOXETINE] | Compound NOT metabolized
O=c1[nH]c2ccccc2n1CCCN1CCC(n2c(=O)[nH]c3cc(Cl)ccc32)CC1 [DOMPERIDONE] | Compound NOT metabolized

Assay: The drug is tested on Bifidobacterium longum subsp. Infantis strain: CCUG52486 for biotransformation. The drug concentrations were measured before and after a 12-h incubation by liquid-chromatography-coupled mass spectrometry (LC–MS)
Conditions: 2 µM

Structure (SMILES) | Bacterial Biotransformation
CNCC[C@H](Oc1cccc2ccccc12)c1cccs1 [DULOXETINE] | Compound NOT metabolized
O=c1[nH]c2ccccc2n1CCCN1CCC(n2c(=O)[nH]c3cc(Cl)ccc32)CC1 [DOMPERIDONE] | Compound NOT metabolized

Conditions: akkermansia muciniphila, 12 h, 2 µM
Description: The drug is tested on Akkermansia muciniphila strain: ATCC BAA-835 for biotransformation. The drug concentrations were measured before and after a 12-h incubation by liquid-chromatography-coupled mass spectrometry (LC–MS)

Structure (SMILES) | Bacterial Biotransformation
C#C[C@]1(O)CC[C@H]2[C@@H]3CCC4=CC(=O)CC[C@@H]4[C@H]3CC[C@@]21CC [LEVONORGESTREL] | Compound NOT metabolized
CNCC[C@H](Oc1cccc2ccccc12)c1cccs1 [DULOXETINE] | Compound metabolized
O=c1[nH]c2ccccc2n1CCCN1CCC(n2c(=O)[nH]c3cc(Cl)ccc32)CC1 [DOMPERIDONE] | Compound NOT metabolized

Assay: The drug is tested on Bacteroides finegoldii strain: DSM17565 for biotransformation. The drug concentrations were measured before and after a 12-h incubation by liquid-chromatography-coupled mass spectrometry (LC–MS)
Conditions: 2 µM

Structure (SMILES) | Bacterial Biotransformation
C#C[C@]1(O)CC[C@H]2[C@@H]3CCC4=CC(=O)CC[C@@H]4[C@H]3CC[C@@]21CC [LEVONORGESTREL] | Compound NOT metabolized
CNCC[C@H](Oc1cccc2ccccc12)c1cccs1 [DULOXETINE] | Compound NOT metabolized
O=c1[nH]c2ccccc2n1CCCN1CCC(n2c(=O)[nH]c3cc(Cl)ccc32)CC1 [DOMPERIDONE] | Compound NOT metabolized

Conditions: limosilactobacillus reuteri cf48-3a, 12 h, 2 µM
Description: The drug is tested on Lactobacillus reuteri CF48-3A strain: BEI HM-102 for biotransformation. The drug concentrations were measured before and after a 12-h incubation by liquid-chromatography-coupled mass spectrometry (LC–MS)

Structure (SMILES) | Bacterial Biotransformation
C#C[C@]1(O)CC[C@H]2[C@@H]3CCC4=CC(=O)CC[C@@H]4[C@H]3CC[C@@]21CC [LEVONORGESTREL] | Compound NOT metabolized
CNCC[C@H](Oc1cccc2ccccc12)c1cccs1 [DULOXETINE] | Compound NOT metabolized
O=c1[nH]c2ccccc2n1CCCN1CCC(n2c(=O)[nH]c3cc(Cl)ccc32)CC1 [DOMPERIDONE] | Compound NOT metabolized

Conditions: bacteroides intestinalis, 12 h, 2 µM
Description: The drug is tested on Bacteroides intestinalis strain: DSM17393 for biotransformation. The drug concentrations were measured before and after a 12-h incubation by liquid-chromatography-coupled mass spectrometry (LC–MS)

Structure (SMILES) | Bacterial Biotransformation
C#C[C@]1(O)CC[C@H]2[C@@H]3CCC4=CC(=O)CC[C@@H]4[C@H]3CC[C@@]21CC [LEVONORGESTREL] | Compound NOT metabolized
CNCC[C@H](Oc1cccc2ccccc12)c1cccs1 [DULOXETINE] | Compound NOT metabolized
O=c1[nH]c2ccccc2n1CCCN1CCC(n2c(=O)[nH]c3cc(Cl)ccc32)CC1 [DOMPERIDONE] | Compound NOT metabolized

Assay: The drug is tested on Bacteroides dorei strain: DSM17855 for biotransformation. The drug concentrations were measured before and after a 12-h incubation by liquid-chromatography-coupled mass spectrometry (LC–MS)
Conditions: phocaeicola dorei, 2 µM

Structure (SMILES) | Bacterial Biotransformation
C#C[C@]1(O)CC[C@H]2[C@@H]3CCC4=CC(=O)CC[C@@H]4[C@H]3CC[C@@]21CC [LEVONORGESTREL] | Compound metabolized
CNCC[C@H](Oc1cccc2ccccc12)c1cccs1 [DULOXETINE] | Compound metabolized
O=c1[nH]c2ccccc2n1CCCN1CCC(n2c(=O)[nH]c3cc(Cl)ccc32)CC1 [DOMPERIDONE] | Compound NOT metabolized

Assay: The drug is tested on Eubacterium ventriosum strain: ATCC27560 for biotransformation. The drug concentrations were measured before and after a 12-h incubation by liquid-chromatography-coupled mass spectrometry (LC–MS)
Assay type: ADME
Design: dose 2 uM, timepoint 0 vs 12 hours
Conditions: 2 µM

Structure (SMILES) | Bacterial Biotransformation
C#C[C@]1(O)CC[C@H]2[C@@H]3CCC4=CC(=O)CC[C@@H]4[C@H]3CC[C@@]21CC [LEVONORGESTREL] | Compound NOT metabolized
CNCC[C@H](Oc1cccc2ccccc12)c1cccs1 [DULOXETINE] | Compound NOT metabolized
O=c1[nH]c2ccccc2n1CCCN1CCC(n2c(=O)[nH]c3cc(Cl)ccc32)CC1 [DOMPERIDONE] | Compound NOT metabolized

Assay: The drug is tested on Eubacterium hallii strain: DSM3353 for biotransformation. The drug concentrations were measured before and after a 12-h incubation by liquid-chromatography-coupled mass spectrometry (LC–MS)
Conditions: anaerobutyricum hallii, 2 µM

Structure (SMILES) | Bacterial Biotransformation
C#C[C@]1(O)CC[C@H]2[C@@H]3CCC4=CC(=O)CC[C@@H]4[C@H]3CC[C@@]21CC [LEVONORGESTREL] | Compound NOT metabolized
O=c1[nH]c2ccccc2n1CCCN1CCC(n2c(=O)[nH]c3cc(Cl)ccc32)CC1 [DOMPERIDONE] | Compound NOT metabolized

Conditions: bacteroides fragilis, 12 h, 2 µM
Description: The drug is tested on Bacteroides fragilis strain: NCTC 9343 for biotransformation. The drug concentrations were measured before and after a 12-h incubation by liquid-chromatography-coupled mass spectrometry (LC–MS)

Structure (SMILES) | Bacterial Biotransformation
C#C[C@]1(O)CC[C@H]2[C@@H]3CCC4=CC(=O)CC[C@@H]4[C@H]3CC[C@@]21CC [LEVONORGESTREL] | Compound metabolized
CNCC[C@H](Oc1cccc2ccccc12)c1cccs1 [DULOXETINE] | Compound metabolized
O=c1[nH]c2ccccc2n1CCCN1CCC(n2c(=O)[nH]c3cc(Cl)ccc32)CC1 [DOMPERIDONE] | Compound NOT metabolized

Assay: The drug is tested on Anaerotruncus colihominis strain: DSM17241 for biotransformation. The drug concentrations were measured before and after a 12-h incubation by liquid-chromatography-coupled mass spectrometry (LC–MS)
Conditions: 2 µM

Structure (SMILES) | Bacterial Biotransformation
C#C[C@]1(O)CC[C@H]2[C@@H]3CCC4=CC(=O)CC[C@@H]4[C@H]3CC[C@@]21CC [LEVONORGESTREL] | Compound NOT metabolized
CNCC[C@H](Oc1cccc2ccccc12)c1cccs1 [DULOXETINE] | Compound NOT metabolized
O=c1[nH]c2ccccc2n1CCCN1CCC(n2c(=O)[nH]c3cc(Cl)ccc32)CC1 [DOMPERIDONE] | Compound NOT metabolized
